From patent US11090304B2 (Amgen Inc., priority 2018, dated 2021)

Target: GDP-bound KRAS protein (aa 1-169), containing both G12C and C118A amino acid substitutions (Homo sapiens, UniProt P01116, C118A/G12C)
Test: Coupled nucleotide exchange assay (SOS-mediated, AlphaScreen)
Assay type: biochemical
Conditions: 5 min compound pre-incubation

Chain of GDP-bound KRAS protein (aa 1-169), containing both G12C and C118A amino acid substitutions (P01116 1-169 isoform P01116-2 G12C/C118A): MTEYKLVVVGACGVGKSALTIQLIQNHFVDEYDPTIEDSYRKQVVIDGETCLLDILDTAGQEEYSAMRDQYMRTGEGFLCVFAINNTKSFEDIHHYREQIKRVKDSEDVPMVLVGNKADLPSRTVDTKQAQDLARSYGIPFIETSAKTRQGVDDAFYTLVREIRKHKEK

Structure (SMILES)	Coupled exchange IC50 (5 min)
C=CC(=O)N1CCN(c2nc(=O)n(-c3ccccc3CC#N)c3nc(-c4c(O)cccc4F)c(Cl)cc23)[C@@H](C)C1 [Example 54-19, (2-(6-chloro-7-(2-fluoro-6-hydroxyphenyl)-4-((2S)-2-methyl-4-(2-propenoyl)-1-piperazinyl)-2-oxopyrido[2,3-d]pyrimidin-1(2H)-yl)phenyl) acetonitrile]	12.2 | nda μM
C=CC(=O)N1CCN(c2nc(=O)n(-c3nccnc3C(C)C)c3nc(-c4ccccc4F)c(Cl)cc23)[C@@H](C)C1 [Example 54-20]	2.26 | nda μM
C=CC(=O)N1CCN(c2nc(=O)n(-c3ncccc3C3(C#N)CC3)c3nc(-c4ccccc4F)c(Cl)cc23)[C@@H](C)C1 [Example 54-39, 1-(2-(6-chloro-7-(2-fluorophenyl)-4-((2S)-2-methyl-4-(2-propenoyl)-1-piperazinyl)-2-oxopyrido[2,3-d]pyrimidin-1(2H)-yl)-3-pyridinyl) cyclopropane carbonitrile]	32.1 | nda μM
C=CC(=O)N1CCN(c2nc(=O)n(-c3ncccc3C3(C#N)CC3)c3nc(-c4c(O)cccc4F)c(Cl)cc23)[C@@H](C)C1 [Example 54-40, 1-(2-(6-chloro-7-(2-fluoro-6-hydroxyphenyl)-4-((2S)-2-methyl-4-(2-propenoyl)-1-piperazinyl)-2-oxopyrido[2,3-d]pyrimidin-1(2H)-yl)-3-pyridinyl) cyclopropane carbonitrile]	21.3 | nda μM
C=CC(=O)N1CCN(c2nc(=O)n(-c3ccccc3C(C)C)c3nc(-c4c(C)noc4C)c(Cl)cc23)[C@@H](C)C1 [Example 54-44, 6-chloro-7-(3,5-dimethyl-1,2-oxazol-4-yl)-4-((2S)-2-methyl-4-(2-propenoyl)-1-piperazinyl)-1-(2-(2-propanyl)phenyl)pyrido [2,3-d]pyrimidin-2(1H)-one]	3.9 | nda μM
C=CC(=O)N1CCN(c2nc(=O)n(-c3ccccc3C(C)C)c3nc(-c4ccc[nH]4)c(Cl)cc23)[C@@H](C)C1 [Example 54-46, 6-chloro-4-((2S)-2-methyl-4-(2-propenoyl)-1-piperazinyl)-1-(2-(2-propanyl)phenyl)-7-(1H-pyrrol-2-yl)pyrido[2,3-d]pyrimidin-2(1H)-one]	7.24 | nda μM
C=CC(=O)N1CCN(c2nc(=O)n(-c3ccccc3C(C)C)c3nc(-c4ccco4)c(Cl)cc23)[C@@H](C)C1 [Example 54-47, 6-chloro-7-(2-furanyl)-4-((2S)-2-methyl-4-(2-propenoyl)-1-piperazinyl)-1-(2-(2-propanyl)phenyl)pyrido [2,3-d]pyrimidin-2(1H)-one]	10.7 | nda μM
C=CC(=O)N1CCN(c2nc(=O)n(-c3ccccc3OC(F)(F)F)c3nc(-c4c(O)cccc4F)c(Cl)cc23)[C@@H](C)C1 [Example 54-49, 6-chloro-7-(2-fluoro-6-hydroxyphenyl)-4-((2S)-2-methyl-4-(2-propenoyl)-1-piperazinyl)-1-(2-(trifluoromethoxy)phenyl) pyrido[2,3-d]pyrimidin-2(1H)-one]	5.65 | nda μM
C=CC(=O)N1C[C@@H]2C[C@H]1CN2c1nc(=O)n(-c2ccccc2C(C)C)c2nc(-c3c(O)cccc3F)c(Cl)cc12 [Example 54-50, 4-((1S,4S)-5-acryloyl-2,5-diazabicyclo [2.2.1]heptan-2-yl)-6-chloro-7-(2-fluoro-6-hydroxyphenyl)-1-(2-isopropylphenyl) pyrido [2,3-d]pyrimidin-2(1H)-one]	88.8 | nda μM
C=CC(=O)N1CCN(c2nc(=O)n(-c3ccccc3S(C)(=O)=O)c3nc(-c4c(O)cccc4F)c(Cl)cc23)[C@@H](C)C1 [Example 54-56, 6-chloro-7-(2-fluoro-6-hydroxyphenyl)-4-((2S)-2-methyl-4-(2-propenoyl)-1-piperazinyl)-1-(2-(methylsulfonyl)phenyl) pyrido[2,3-d]pyrimidin-2(1H)-one]	1.42 | nda μM
C=CC(=O)N1CCN(c2nc(=O)n(-c3ccccc3S(C)(=O)=O)c3nc(-c4c(O)cccc4F)c(Cl)cc23)[C@@H](C)C1 [Example 54-56-1]	2.49 | nda μM
C=CC(=O)N1CCN(c2nc(=O)n(-c3ccccc3C#N)c3nc(-c4c(O)cccc4F)c(Cl)cc23)[C@@H](C)C1 [Example 54-58, 2-(6-chloro-7-(2-fluoro-6-hydroxyphenyl)-4-((2S)-2-methyl-4-(2-propenoyl)-1-piperazinyl)-2-oxopyrido[2,3-d]pyrimidin-1(2H)-yl)benzonitrile]	3.44 | nda μM
C=CC(=O)N1CCN(c2nc(=O)n(-c3c(OC)cccc3OC)c3nc(-c4ccccc4F)c(Cl)cc23)[C@@H](C)C1 [Example 54-68, 6-chloro-1-(2,6-dimethoxy-phenyl)-7-(2-fluorophenyl)-4-((2S)-2-methyl-4-(2-propenoyl)-1-piperazinyl) pyrido[2,3-d]pyrimidin-2(1H)-one]	4.65 | nda μM
C=CC(=O)N1CCN(c2nc(=O)n(-c3ccccc3C(C)C)c3nc(C4=CCCCC4)c(Cl)cc23)[C@@H](C)C1 [Example 54-75, 6-chloro-7-(1-cyclohexen-1-yl)-4-((2S)-2-methyl-4-(2-propenoyl)-1-piperazinyl)-1-(2-(2-propanyl)phenyl)pyrido [2,3-d]pyrimidin-2(1H)-one]	1.08 | nda μM
C=CC(=O)N1CCN(c2nc(=O)n(-c3ccccc3C(C)C)c3nc(C4=CCCOC4)c(Cl)cc23)[C@@H](C)C1 [Example 54-76, 6-chloro-7-(5,6-dihydro-2H-pyran-3-yl)-4-((2S)-2-methyl-4-(2-propenoyl)-1-piperazinyl)-1-(2-(2-propanyl)phenyl)pyrido [2,3-d]pyrimidin-2(1H)-one]	5.48 | nda μM
C=CC(=O)N1CCN(c2nc(=O)n(-c3ccccc3C(C)C)c3nc(-c4ncccc4F)c(Cl)cc23)[C@@H](C)C1 [Example 54-92, 6-chloro-7-(3-fluoro-2-pyridinyl)-4-((2S)-2-methyl-4-(2-propenoyl)-1-piperazinyl)-1-(2-(2-propanyl)phenyl)pyrido [2,3-d]pyrimidin-2(1H)-one]	1.27 | nda μM

Now from value to molecule:

Coupled exchange IC50 (5 min)	Structure (SMILES)
1.43 | nda μM	C=CC(=O)N1CCN(c2nc(=O)n(-c3ccccc3C(C)C)c3nc(-c4ncc(F)cc4F)c(Cl)cc23)[C@@H](C)C1 [Example 54-93, 6-chloro-7-(3,5-difluoro-2-pyridinyl)-4-((2S)-2-methyl-4-(2-propenoyl)-1-piperazinyl)-1-(2-(2-propanyl)phenyl)pyrido [2,3-d]pyrimidin-2(1H)-one]
1.19 | nda μM	C=CC(=O)N1CCN(c2nc(=O)n(-c3ccccc3C(C)C)c3nc(-c4ncccc4Cl)c(Cl)cc23)[C@@H](C)C1 [Example 54-94, 6-chloro-7-(3-chloro-2-pyridinyl)-4-((2S)-2-methyl-4-(2-propenoyl)-1-piperazinyl)-1-(2-(2-propanyl)phenyl)pyrido [2,3-d]pyrimidin-2(1H)-one]
5.45 | nda μM	C=CC(=O)N1CCN(c2nc(=O)n(-c3ccccc3C3(C)CC3)c3nc(Cl)c(Cl)cc23)[C@@H](C)C1 [Example 54-98]
2.51 | nda μM	C=CC(=O)N1CCN(c2nc(=O)n(-c3ccccc3N3CCOCC3)c3nc(-c4c(O)cccc4F)c(Cl)cc23)[C@@H](C)C1 [Example 54-100, 6-chloro-7-(2-fluoro-6-hydroxyphenyl)-4-((2S)-2-methyl-4-(2-propenoyl)-1-piperazinyl)-1-(2-(4-morpholinyl)phenyl) pyrido[2,3-d] pyrimidin-2(1H)-one]
0.51 | nda μM	C=CC(=O)N1CCN(c2nc(=O)n(-c3c(CC)n[nH]c3CC)c3nc(-c4ccccc4F)c(Cl)cc23)[C@@H](C)C1 [Example 54-106]
0.355 | nda μM	C=CC(=O)N1CCN(c2nc(=O)n(-c3c[nH]cc3C(C)C)c3nc(-c4ccccc4F)c(Cl)cc23)[C@@H](C)C1 [Example 54-109, 6-chloro-7-(2-fluorophenyl)-4-((2S)-2-methyl-4-(2-propenoyl)-1-piperazinyl)-1-(4-(2-propanyl)-1H-pyrrol-3-yl)pyrido[2,3-d]pyrimidin-2(1H)-one]
0.806 | nda μM	C=CC(=O)N1CCN(c2nc(=O)n(-c3c(C)ccnc3N(C)C)c3nc(-c4ccccc4F)c(Cl)cc23)[C@@H](C)C1 [Example 55-7]
2.29 | nda μM	C=CC(=O)N1CCN(c2nc(=O)n(-c3nccc4c3CCCC4)c3nc(-c4c(O)cccc4F)c(Cl)cc23)[C@@H](C)C1 [Example 55-25, 6-chloro-7-(2-fluoro-6-hydroxyphenyl)-4-((2S)-2-methyl-4-(2-propenoyl)-1-piperazinyl)-1-(5,6,7,8-tetrahydro-1-isoquinolinyl)pyrido[2,3-d]pyrimidin-2(1H)-one]
12.9 | nda μM	C=CC(=O)N1CCN(c2nc(=O)n(-c3c(CC)cccc3CC)c3nc(-c4cccnc4)c(Cl)cc23)[C@@H](C)C1 [Example 55-28, 6-chloro-1-(2,6-diethylphenyl)-4-((2S)-2-methyl-4-(2-propenoyl)-1-piperazinyl)-7-(3-pyridinyl)pyrido[2,3-d]pyrimidin-2(1H)-one]
7.19 | nda μM	C=CC(=O)N1CCN(c2nc(=O)n(-c3c(CC)cccc3CC)c3nc(-c4cccnc4C)c(Cl)cc23)[C@@H](C)C1 [Example 55-29, 6-chloro-1-(2,6-diethylphenyl)-4-((2S)-2-methyl-4-(2-propenoyl)-1-piperazinyl)-7-(2-methyl-3-pyridinyl)pyrido[2,3-d]pyrimidin-2(1H)-one]

Same assay, conditions: 2 h compound pre-incubation

Coupled exchange IC50 (2 h)	Structure (SMILES)
nda | 7.97 μM	C=CC(=O)N1CCN(c2nc(=O)n(-c3c(CC)cccc3CC)c3nc(Oc4cccc(F)c4)c(Cl)cc23)[C@@H](C)C1 [Example 54-64, 6-chloro-1-(2,6-diethylphenyl)-7-(3-fluorophenoxy)-4-((2S)-2-methyl-4-(2-propenoyl)-1-piperazinyl) pyrido[2,3-d]pyrimidin-2(1H)-one]
